In the experiment the target is T1, WDR5 (Homo sapiens, UniProt P61964).
T1 construct: DNA fragment encoding amino acids 23 to 483 of WDR5 subcloned in the pET-28a plasmid; His6 (N); SUMO (N); made in house; host or cells: Escherichia coli BL21(DE3)
Description: Fluorescence polarization (FP) competitive binding assay. The note with it: for EC50: FP competitive assay vs fluorescently labeled tracer (2.5 nM), 0.2 M phosphate, 300 mM NaCl, 0.1% CHAPS, pH 6.5, 0.5 mM TCEP, 4 h incubation, 384-well plate, two independent experiments; for EC50 / Ki: mean ± standard error; for Ki: Ki from nonlinear regression fitting based on Kd of the probe, protein 5 nM. As for the experimental part: The fluorescence polarization (FP) binding assays used to evaluate the ability of these cyclic peptides targeting protein WDR5 were carried out in the 384-well plate. We synthesized the fluorescently labeled positive compound [28, 29]: 1-((3′,6′-dihydroxy-3-oxo-3H-spiro[isobenzofuran-1,9′-xanthen]-5-yl)amino)-N-(3′-(3,5-dimethylbenzamido)-4′-(4-methylpiperazin-1-yl)-[1,1′-biphenyl]-4-yl)-1-thioxo-5,8,11-trioxa-2-azatetradecan-14-amide, which was used in direct binding assay against WDR5. 10 μL of 10 nM positive compound was added to 20 μL WDR5(the final concentration was 5 nM) in the buffer containing 0.2 M phosphate; 300 mM NaCl; 0.1%CHAPS; PH 6.5; 0.5 mM TCEP. Then the peptide compound to be tested was diluted in a gradient and added to each well with 10μL. Finally, the assay was carried out in 40 μL volume and the protein tracer mixture was incubated for 4 h before reading the plate. The fluorescence polarization was measured in Synergy™ Neo2 Multi-Mode Microplate Reader using an excitation filter at 485 nm and an emission filter at 535 nm. Each experiment was done two times and each polarization readings consisted of two averaged measurements. The reading is processed by the following formula:(1) Inhibition=C−F/C−B×100% where C is the anisotropy value of the fluorescence substrate bound to the protein completely, B is the anisotropy value of the fluorescence substrate, F is the corresponding anisotropy value after adding different concentrations of peptides. The data were plotted against the log peptide concentration and was fitted into a one site-Fit logIC50 equation with Graphpad Prim5 software using nonlinear regression model to obtain the competitive curve:(2) Y=A+B−A/1+10^(x−LogIC50) where x is log10 of the compound concentration in M, Y is the inflection point (EC50 or IC50), A is the bottom plateau effect, B is the top plateau effect. Potency (IC50/EC50) is the log of the concentration of competitor that results in binding half-way between bottom and top.
The EC50 values of peptides were determined in competitive binding experiments by nonlinear regression fitting of the competition curves as mentioned above. And Ki values of competitive inhibitors were obtained directly by nonlinear regression fitting, based upon the Kd values of the probe to different proteins and concentrations of the proteins and probes in the competitive assays. The data is processed by the following formula:(3) F0=P+L0+Kd−(P+L0+Kd)^2−4×P×L0/2×L0 (4) IC50/F0×Kd/(1−F0)(2−F0)+F0×L0/2=Ki(2−F0)/Kd×F0+1 where P is the proteins concentration in the assay (5 nM), L0 is the Tracer concentration in the assay (2.5 nM), F0 and the corresponding Ki value can be calculated according to the above formula.
(In general: Fluorescence polarisation rises when a labelled molecule tumbles more slowly, as on binding a larger partner.)

Setting [1] is: FP competitive assay, tracer 2.5 nM.

Positions of bridges follow the written chain, without caps; N, C: chain ends. Residues, ends and D or L forms follow the SMILES beside them. No end group written: not given here.

For orientation: EC50 means the concentration at which the effect is half-maximal. Broadly, the Ki is the equilibrium dissociation constant of an inhibitor or competing ligand from its target. On to `CC(C)C[C@@H]1NC(=O)[C@H]([C@@H](C)O)NC(=O)[C@H](CCCNC(=N)N)NC(=O)[C@@H](N)CSSC[C@@H](C(=O)O)NC(=O)[C@H](CO)NC(=O)CNC(=O)[C@H](Cc2ccccc2)NC(=O)[C@@H]2CCCN2C1=O` [D206181] (H-CRTLPFGSC-OH; disulfide 1-9), for which, under “WDR5 5 nM”, the concentration giving a half-maximal response (EC50) came to 4.4 ± 0.4 µM. For the same molecule, the inhibition constant (Ki) under setting [1] came to 0.9 ± 0.08 µM.

Turning to `CC(C)C[C@@H]1NC(=O)[C@H]([C@@H](C)O)NC(=O)[C@H](CCCNC(=N)N)NC(=O)[C@@H](N)CSSC[C@@H](C(=O)O)NC(=O)[C@H](C)NC(=O)CNC(=O)[C@H](Cc2ccc(O)cc2)NC(=O)[C@@H]2CCCN2C1=O` [D206180] (H-CRTLPYGAC-OH; disulfide 1-9), the half-maximal effective concentration (EC50) (WDR5 5 nM) came to 2.7 ± 0.2 µM. The Ki under setting [1] was 0.5 ± 0.05 µM.

For the molecule `CC(C)C[C@@H]1NC(=O)[C@H]([C@@H](C)O)NC(=O)[C@H](CCCNC(=N)N)NC(=O)[C@@H](N)CSSC[C@@H](C(=O)O)NC(=O)[C@H](CC(N)=O)NC(=O)[C@H](CC(N)=O)NC(=O)[C@H](Cc2c[nH]c3ccccc23)NC(=O)[C@@H]2CCCN2C1=O` [D206179] (H-CRTLPWNNC-OH; disulfide 1-9), for the setting “WDR5 5 nM”, the EC50 stood at 2.3 ± 0.6 µM. Besides, the Ki under setting [1] was 0.5 ± 0.1 µM.

Regarding `CC(C)C[C@@H]1NC(=O)[C@H]([C@@H](C)O)NC(=O)[C@H](CCCNC(=N)N)NC(=O)[C@@H](N)CSSC[C@@H](C(=O)O)NC(=O)[C@H](CCC(=O)O)NC(=O)[C@H](Cc2c[nH]cn2)NC(=O)[C@H](Cc2ccccc2)NC(=O)[C@@H]2CCCN2C1=O` [D206115] (H-CRTLPFHEC-OH; disulfide 1-9), the EC50 (WDR5 5 nM) came out at 5.9 ± 0.2 µM. Under setting [1], the inhibitory constant (Ki) was found to be 1.2 ± 0.04 µM.

With “CEKMVATHC (disulfide 1-9 (inferred)) [D206116, disulfide-constrained cyclic peptide from phage display, without “RT” motif]”, the “binding to WDR5 (in words)” value (FP competitive assay, WDR5 5 nM, tracer 2.5 nM, pH 6.5) is recorded as “unable to bind to WDR5”.

The record behind these values is article PMC7956166, “Phage-Display Based Discovery and Characterization of Peptide Ligands against WDR5” (Molecules, 2021).
